# In ChEMBL document CHEMBL1201862, “PubChem BioAssay data set” (2004):
#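 Test compounds were applied to cells in 96-well plates for 48 hours at 5 doses. Abbreviation: GI50, concentration required for 50% inhibition of growth.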 The source made the active and inactive calls. No stated cut-off is given here; in the data, active = GI50 up to about 1.1 µM and inactive = higher.
# Tests used:
# Assay in all cases: NCI anticancer screen, dose series, 48 h
# ACHN = test system: ACHN
# CCRF-CEM = test system: CCRF-CEM
# COLO 205 = test system: COLO 205
# HCT-15 = test system: HCT-15
# HOP-92 = test system: HOP-92
# IGROV-1 = test system: IGROV-1
# M14 = test system: M14
# MDA-MB-231 = test system: MDA-MB-231
# MDA-MB-435 = test system: MDA-MB-435
# NCI-H226 = test system: NCI-H226
# NCI-H23 = test system: NCI-H23
# RPMI-8226 = test system: RPMI-8226
# SF-268 = test system: SF-268
# SF-295 = test system: SF-295
# SNB-75 = test system: SNB-75
# SW-620 = test system: SW-620
# TK-10 = test system: TK-10
# UACC-257 = test system: UACC-257
# MDA-N = test system: MDA-N
# SK-MEL-28 = test system: SK-MEL-28
SMILES,GI50 (ACHN),GI50 (CCRF-CEM),GI50 (COLO 205),GI50 (HCT-15),GI50 (HOP-92),GI50 (IGROV-1),GI50 (M14),GI50 (MDA-MB-231),GI50 (MDA-MB-435),GI50 (NCI-H226),GI50 (NCI-H23),GI50 (RPMI-8226),GI50 (SF-268),GI50 (SF-295),GI50 (SNB-75),GI50 (SW-620),GI50 (TK-10),GI50 (UACC-257),GI50 (MDA-N),GI50 (SK-MEL-28)
O=C1c2ccccc2NC2C(O)c3ccccc3N12 (configuration not stated),40.8 µM (inactive),29.4 µM (inactive),41.1 µM (inactive),34.6 µM,> 100 µM (inactive),72.8 µM (inactive),81.3 µM (inactive),> 100 µM (inactive),17.7 µM (inactive),> 100 µM (inactive),29.8 µM (inactive),10.1 µM (inactive),> 100 µM (inactive),28.8 µM (inactive),> 100 µM (inactive),9.46 µM (inactive),99.3 µM (inactive),15.3 µM (inactive),,
O=P1(Oc2ccc(Cl)cc2)OCCS1 (configuration not stated),> 100 µM (inactive),> 100 µM (inactive),> 100 µM (inactive),> 100 µM,> 100 µM (inactive),> 100 µM (inactive),> 100 µM (inactive),> 100 µM (inactive),,> 100 µM (inactive),> 100 µM (inactive),> 100 µM (inactive),> 100 µM (inactive),> 100 µM (inactive),> 100 µM (inactive),> 100 µM (inactive),> 100 µM (inactive),> 100 µM (inactive),> 100 µM (inactive),> 100 µM (inactive)
COC(=N)/C(=C1\OC(=N)C(c2ccc(Cl)cc2)=C1O)c1ccc(Cl)cc1,> 100 µM (inactive),70.5 µM (inactive),> 100 µM (inactive),> 100 µM,> 100 µM (inactive),> 100 µM (inactive),> 100 µM (inactive),,,> 100 µM (inactive),> 100 µM (inactive),81.8 µM (inactive),> 100 µM (inactive),> 100 µM (inactive),> 100 µM (inactive),> 100 µM (inactive),> 100 µM (inactive),> 100 µM (inactive),,> 100 µM (inactive)
NC(C(F)(F)F)(C(F)(F)F)P(=O)(Cc1ccccc1)Cc1ccccc1,> 100 µM (inactive),> 100 µM (inactive),> 100 µM (inactive),> 100 µM,,> 100 µM (inactive),> 100 µM (inactive),> 100 µM (inactive),> 100 µM (inactive),,> 100 µM (inactive),> 100 µM (inactive),73.8 µM (inactive),> 100 µM (inactive),55.6 µM (inactive),> 100 µM (inactive),> 100 µM (inactive),> 100 µM (inactive),> 100 µM (inactive),> 100 µM (inactive)
Cc1nc2c(C)ccc([N+](=O)[O-])c2c(NCCCN(C)C)c1C,> 100 µM (inactive),51.6 µM (inactive),23.9 µM (inactive),> 39.4 µM,> 100 µM (inactive),> 100 µM (inactive),19.5 µM (inactive),,39.2 µM (inactive),67.1 µM (inactive),> 75.9 µM (inactive),52.6 µM (inactive),> 100 µM (inactive),38.4 µM (inactive),> 65.3 µM (inactive),> 38.5 µM (inactive),> 41.6 µM (inactive),23.3 µM (inactive),33.1 µM (inactive),27.1 µM (inactive)
CC(=O)C1=C(O)/C(=C\c2ccco2)OC1=O,> 10 µM (inactive),> 10 µM (inactive),> 10 µM (inactive),> 10 µM,> 10 µM (inactive),> 10 µM (inactive),> 10 µM (inactive),> 10 µM (inactive),> 10 µM (inactive),> 10 µM (inactive),> 10 µM (inactive),> 10 µM (inactive),> 10 µM (inactive),> 10 µM (inactive),> 10 µM (inactive),> 10 µM (inactive),> 10 µM (inactive),> 10 µM (inactive),,> 10 µM (inactive)
O=C(CC(=O)c1ccccc1)C(=O)NC12CC3CC(CC(C3)C1)C2,> 100 µM (inactive),> 49.2 µM (inactive),> 45 µM (inactive),> 37.8 µM,> 100 µM (inactive),> 100 µM (inactive),> 100 µM (inactive),,,> 100 µM (inactive),> 100 µM (inactive),> 45.3 µM (inactive),> 91.4 µM (inactive),> 100 µM (inactive),> 69.7 µM (inactive),> 41.6 µM (inactive),> 100 µM (inactive),> 100 µM (inactive),,> 100 µM (inactive)
CCOc1cc2c(C(=O)CC)c(O)ccc2o1,> 100 µM (inactive),24.9 µM (inactive),> 67.9 µM (inactive),> 100 µM,> 100 µM (inactive),> 100 µM (inactive),> 55 µM (inactive),,,> 100 µM (inactive),> 100 µM (inactive),> 58.1 µM (inactive),> 100 µM (inactive),> 100 µM (inactive),> 91 µM (inactive),57.3 µM (inactive),> 79.8 µM (inactive),> 100 µM (inactive),,> 35.3 µM (inactive)
OC(c1ccco1)C(F)(F)c1nc2ccccc2o1 (configuration not stated),> 100 µM (inactive),> 100 µM (inactive),> 100 µM (inactive),> 100 µM,> 100 µM (inactive),> 100 µM (inactive),29.5 µM (inactive),> 100 µM (inactive),> 100 µM (inactive),> 100 µM (inactive),> 100 µM (inactive),> 100 µM (inactive),> 100 µM (inactive),56.8 µM (inactive),> 100 µM (inactive),> 100 µM (inactive),> 100 µM (inactive),> 100 µM (inactive),,> 100 µM (inactive)
CSc1nc(=S)[nH]c2[nH]nc(C)c12,,> 100 µM (inactive),> 100 µM (inactive),> 100 µM,,,> 100 µM (inactive),> 100 µM (inactive),> 100 µM (inactive),> 100 µM (inactive),> 100 µM (inactive),> 100 µM (inactive),> 100 µM (inactive),,> 100 µM (inactive),> 100 µM (inactive),> 100 µM (inactive),> 100 µM (inactive),> 100 µM (inactive),> 100 µM (inactive)
O=C1CC(C2(O)C(=O)Nc3ccc([N+](=O)[O-])cc32)c2ccccc21 (configuration not stated),54.1 µM (inactive),19.5 µM (inactive),25.4 µM (inactive),18.2 µM,35 µM (inactive),17.8 µM (inactive),18.9 µM (inactive),,,14.7 µM (inactive),26.7 µM (inactive),20.7 µM (inactive),18.5 µM (inactive),34.1 µM (inactive),39.5 µM (inactive),28.2 µM (inactive),> 100 µM (inactive),47.1 µM (inactive),,24.8 µM (inactive)
COc1ccccc1-c1nc[nH]c1-c1ccccc1OC,35.9 µM (inactive),,,35 µM,17.3 µM (inactive),29 µM (inactive),19.7 µM (inactive),21.7 µM (inactive),,,27.4 µM (inactive),29.3 µM (inactive),14.4 µM (inactive),26 µM (inactive),14.6 µM (inactive),40.3 µM (inactive),22.5 µM (inactive),25.3 µM (inactive),16.1 µM (inactive),33.7 µM (inactive)
